Literature values as cited in patent publication US9399657B2, “Chemiluminescent methods and reagents for analyte detection” (priority 2007, dated 2016).

Target: firefly luciferase (Photinus pyralis, UniProt P08659)
Details: read-out: IC50 (inhibitor of firefly luciferase bioluminescence reaction)

firefly luciferase, sequence (P08659 whole entry): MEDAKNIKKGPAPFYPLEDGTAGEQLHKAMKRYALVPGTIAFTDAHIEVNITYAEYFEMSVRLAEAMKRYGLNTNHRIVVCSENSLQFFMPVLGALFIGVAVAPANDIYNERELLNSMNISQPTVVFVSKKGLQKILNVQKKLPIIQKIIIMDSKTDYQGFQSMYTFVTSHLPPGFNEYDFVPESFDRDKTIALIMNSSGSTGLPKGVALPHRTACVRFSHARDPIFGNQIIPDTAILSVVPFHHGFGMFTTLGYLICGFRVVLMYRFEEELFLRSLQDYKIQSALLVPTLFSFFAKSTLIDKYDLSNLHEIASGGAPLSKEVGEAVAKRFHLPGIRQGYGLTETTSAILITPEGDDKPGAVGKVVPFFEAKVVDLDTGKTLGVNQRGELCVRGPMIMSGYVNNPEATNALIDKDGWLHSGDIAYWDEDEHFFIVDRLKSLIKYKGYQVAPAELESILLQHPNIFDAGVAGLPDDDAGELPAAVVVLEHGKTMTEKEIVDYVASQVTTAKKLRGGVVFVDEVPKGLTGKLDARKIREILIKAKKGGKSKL

O=C(O)c1csc(-c2nc3ccc(O)cc3s2)n1 [firefly dehydroluciferin]
IC50: 6 nM
